According to US20100048617A1, “COMPOUNDS” (SmithKline Beecham Corp., priority 2006, published 2010):
Where a name gives a salt, the structure may show the parent alone.

Target: T1, SCD (SCD-containing rat microsomes) (Rattus norvegicus, UniProt P07308)
T1 construct: SCD-containing rat microsomes (2 μg protein); from tissue
T1 sequence (P07308 1-358): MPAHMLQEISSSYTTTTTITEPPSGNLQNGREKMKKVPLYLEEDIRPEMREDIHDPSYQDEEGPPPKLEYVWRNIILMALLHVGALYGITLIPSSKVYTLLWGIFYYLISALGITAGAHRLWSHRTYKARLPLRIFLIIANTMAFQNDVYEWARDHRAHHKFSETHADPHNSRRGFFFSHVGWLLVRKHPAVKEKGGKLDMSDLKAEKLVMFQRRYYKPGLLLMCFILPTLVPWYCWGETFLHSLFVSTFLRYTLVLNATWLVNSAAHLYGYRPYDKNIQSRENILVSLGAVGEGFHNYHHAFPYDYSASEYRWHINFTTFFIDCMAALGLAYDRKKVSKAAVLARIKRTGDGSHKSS
Assay: in vitro assay for SCD activity based on production of [3H]H2O from [9,10-3H] stearoyl Coenzyme A
Assay type: biochemical
Conditions: SCD-containing rat microsomes (2 μg protein), substrate 1 μM, 6 min incubation, 5 min preincubation with compound; read-out: average pIC50 value (converted)
Method: The compounds of the present invention may be analysed in vitro for SCD activity using an assay based on the production of [^3H]H2O, which is released during the enzyme-catalyzed generation of the monounsaturated fatty acyl CoA product. The assay is performed in a 96-well filtration plates. The titrated substrate used in the assay is the [9,10-^3H] stearoyl Coenzyme A. After incubation for 6 minutes of SCD-containing rat microsomes (2 μg protein) and substrate (1 μM), the labelled fatty acid acyl-CoA species and microsomes are absorbed with charcoal and separated from [^3H]H2O by centrifugation. The formation of [^3H]H2O is used as a measure of SCD activity. Compounds at concentrations starting at 10 μM to 0.1 nM or vehicle (DMSO) are preincubated for 5 minutes with the microsomes before addition of the substrate. The concentration-responses are fitted with sigmoidal curves to obtain IC50 values.

| IC50 [µM] | SMILES |
| --- | --- |
| 3.16 to 10 | COc1ccc(Cl)cc1Cn1nc(C(=O)Nc2ccc3c(c2)CCNC3)cc1C [1-{[5-chloro-2-(methyloxy)phenyl]methyl}-5-methyl-N-(1,2,3,4-tetrahydro-6-isoquinolinyl)-1H-pyrazole-3-carboxamide hydrochloride] |
| > 10 | COc1ccc(OCC(C)C)c(Cn2nc(C(=O)Nc3ccc4c(c3)CCNC4)cc2C)c1 [5-methyl-1-({5-(methyloxy)-2-[(2-methylpropyl)oxy]phenyl}methyl)-N-(1,2,3,4-tetrahydro-6-isoquinolinyl)-1H-pyrazole-3-carboxamide hydrochloride] |
